How the values were obtained:
[1] = tested on: Oryza sativa, (L.) Tebonnet; test: Rice tolerance to post-transplant applications under flooded paddy conditions (Example 188), ORYSAT (Rice, Tebonnet); settings: rated three to four weeks after treatment
[2] = tested on: Oryza sativa, (L.) Tebonnet; test: Rice tolerance to post-transplant applications under flooded paddy conditions (Example 187), ORYSAT (Rice, Tebonnet); settings: for herbicidal effect rating, ORYSAT (rice tolerance): rated three to four weeks after treatment; for herbicidal effect rating ORYSAT: rated 3-4 weeks after treatment; on herbicidal effect rating ORYSAT: meaning of each grade not given here
[3] = tested on: Cyperus serotinus, Rottb.; test: Postemergence weed control under flooded paddy conditions, CYPSE (Flatsedge); assay type: in vivo; settings: rated three to four weeks after treatment
[4] = tested on: Monochoria vaginalis, Presl.; test: Preemergence weed control under flooded paddy conditions, MOOVA (Monochoria); assay type: in vivo; settings: preemergence, flooded paddy; further: meaning of each grade not given here
Sagittaria pygmaea, L. [5] = test: Preemergence weed control under flooded paddy conditions, SAGPY (Arrowhead (Pygmaea)); assay type: in vivo; settings: preemergence, flooded paddy; further: meaning of each grade not given here
Cyperus iria [6] = test: Preemergence weed control under flooded paddy conditions, CYPIR (Rice Flatsedge); assay type: in vivo; settings: preemergence, flooded paddy; further: meaning of each grade not given here
[7] = tested on: Monochoria vaginalis, Presl.; test: Postemergence weed control under flooded paddy conditions, MOOVA (Monochoria); assay type: in vivo; settings: rated three to four weeks after treatment
Sagittaria pygmaea, L. [8] = test: Postemergence weed control under flooded paddy conditions, SAGPY (Arrowhead (Pygmaea)); assay type: in vivo; settings: rated three to four weeks after treatment
[9] = tested on: Echinochloa oryzoides (Ard.) Fritsch.; test: Preemergence weed control under flooded paddy conditions, ECHORC (Watergrass (Calif.)); assay type: in vivo; settings: preemergence, flooded paddy; further: meaning of each grade not given here
Cyperus iria [10] = test: Postemergence weed control under flooded paddy conditions, CYPIR (Rice Flatsedge); assay type: in vivo; settings: rated three to four weeks after treatment
[11] = tested on: Cyperus serotinus, Rottb.; test: Preemergence weed control under flooded paddy conditions, CYPSE (Flatsedge); assay type: in vivo; settings: preemergence; further: meaning of each grade not given here
[12] = tested on: Echinochloa oryzoides (Ard.) Fritsch.; test: Postemergence weed control under flooded paddy conditions, ECHORC (Watergrass (Calif.)); assay type: in vivo; settings: rated three to four weeks after treatment
[13] = 0.0625 kg/ha, rated three to four weeks after treatment
[14] = 0.1250 kg/ha, rated three to four weeks after treatment
[15] = 0.2500 kg/ha, rated three to four weeks after treatment
[16] = 0.5000 kg/ha, rated three to four weeks after treatment
[17] = Rate 0.0320 kg/ha, rated 3-4 weeks after treatment
[18] = Rate 0.0620 kg/ha, rated 3-4 weeks after treatment
[19] = Rate 0.1250 kg/ha, rated 3-4 weeks after treatment
[20] = Rate 0.2500 kg/ha, rated 3-4 weeks after treatment

Cc1cc(O)c(-c2nsc3ccc(-n4c(=O)cc(C(F)(F)F)n(C)c4=O)cc23)cc1C [Example 11, 3-[3-(6-Hydroxy-3,4-xylyl)-1,2-benzisothiazol-5-yl]-1-methyl-6-(trifluoromethyl)-2,4(1H,3H)-pyrimidinedione]
2.0: herbicidal effect rating, ORYSAT (rice tolerance) ([2]; 0.0625 kg/ha) | herbicidal effect rating, ORYSAT (rice tolerance) ([2]; 0.1250 kg/ha) | herbicidal effect rating, SAGPY (Sagittaria pygmaea, L. [5]; [15]) | herbicidal effect rating, CYPSE [11, 13] | herbicidal effect rating, CYPSE [11, 14] | herbicidal effect rating, CYPSE [11, 15] | herbicidal effect rating, ECHORC ([12]; Rate 0.1250 kg/ha)
9.0: herbicidal effect rating, MOOVA [4, 13] | herbicidal effect rating, MOOVA [4, 14] | herbicidal effect rating, MOOVA [4, 15] | herbicidal effect rating, MOOVA [4, 16] | herbicidal effect rating, SAGPY (Sagittaria pygmaea, L. [5]; [16]) | herbicidal effect rating, CYPIR (Cyperus iria [6]; [13]) | herbicidal effect rating, CYPIR (Cyperus iria [6]; [14]) | herbicidal effect rating, CYPIR (Cyperus iria [6]; [15]) | herbicidal effect rating, CYPIR (Cyperus iria [6]; [16]) | herbicidal effect rating, MOOVA ([7]; Rate 0.0313 kg/ha) | herbicidal effect rating, MOOVA ([7]; Rate 0.0625 kg/ha) | herbicidal effect rating, MOOVA ([7]; Rate 0.1250 kg/ha) | herbicidal effect rating, MOOVA ([7]; Rate 0.2500 kg/ha) | herbicidal effect rating, MOOVA ([7]; Rate 0.5000 kg/ha) | herbicidal effect rating, ECHORC [9, 16] | herbicidal effect rating, CYPIR (Cyperus iria [10]; Rate 0.0625 kg/ha) | herbicidal effect rating, CYPIR (Cyperus iria [10]; Rate 0.1250 kg/ha) | herbicidal effect rating, CYPIR (Cyperus iria [10]; Rate 0.2500 kg/ha) | herbicidal effect rating, CYPIR (Cyperus iria [10]; Rate 0.5000 kg/ha)
4.0: herbicidal effect rating, SAGPY (Sagittaria pygmaea, L. [8]; Rate 0.2500 kg/ha) | herbicidal effect rating, ECHORC ([12]; Rate 0.2500 kg/ha)
7.0: herbicidal effect rating, SAGPY (Sagittaria pygmaea, L. [8]; Rate 0.5000 kg/ha) | herbicidal effect rating, ECHORC [9, 13] | herbicidal effect rating, CYPSE [11, 16] | herbicidal effect rating, ECHORC ([12]; Rate 0.5000 kg/ha)
8.0: herbicidal effect rating, ECHORC [9, 14] | herbicidal effect rating, ECHORC [9, 15] | herbicidal effect rating, CYPIR (Cyperus iria [10]; Rate 0.0313 kg/ha)
0.0: herbicidal effect rating, ORYSAT (rice tolerance) ([1]; Rate 0.0313 kg/ha) | herbicidal effect rating, ORYSAT (rice tolerance) ([1]; Rate 0.0625 kg/ha) | herbicidal effect rating, ORYSAT (rice tolerance) ([1]; Rate 0.1250 kg/ha) | herbicidal effect rating, CYPSE ([3]; Rate 0.0313 kg/ha) | herbicidal effect rating, CYPSE ([3]; Rate 0.0625 kg/ha) | herbicidal effect rating, CYPSE ([3]; Rate 0.1250 kg/ha) | herbicidal effect rating, CYPSE ([3]; Rate 0.2500 kg/ha) | herbicidal effect rating, CYPSE ([3]; Rate 0.5000 kg/ha) | herbicidal effect rating, SAGPY (Sagittaria pygmaea, L. [5]; [13]) | herbicidal effect rating, SAGPY (Sagittaria pygmaea, L. [5]; [14]) | herbicidal effect rating, SAGPY (Sagittaria pygmaea, L. [8]; Rate 0.0313 kg/ha) | herbicidal effect rating, SAGPY (Sagittaria pygmaea, L. [8]; Rate 0.0625 kg/ha) | herbicidal effect rating, SAGPY (Sagittaria pygmaea, L. [8]; Rate 0.1250 kg/ha) | herbicidal effect rating, ECHORC ([12]; Rate 0.0313 kg/ha) | herbicidal effect rating, ECHORC ([12]; Rate 0.0625 kg/ha)
1.0: herbicidal effect rating, ORYSAT (rice tolerance) ([1]; Rate 0.2500 kg/ha) | herbicidal effect rating, ORYSAT (rice tolerance) ([1]; Rate 0.5000 kg/ha)
3.0: herbicidal effect rating, ORYSAT (rice tolerance) ([2]; 0.2500 kg/ha) | herbicidal effect rating, ORYSAT (rice tolerance) ([2]; 0.5000 kg/ha)

C#CCOC(=O)C(C)(C)Oc1ccc(C)cc1-c1nsc2ccc(-n3c(=O)cc(C(F)(F)F)n(C)c3=O)cc12 [Example 528, Propionic acid, 2-{{2-{5-[3,6-dihydro-3-methyl-2,6-dioxo-4-(trifluoromethyl)-1(2H)-pyrimidinyl]-1,2-benzisothiazol-3-yl}-p-tolyl}oxy}-2-methyl-, 2-propynyl ester]
1.5: herbicidal effect rating ORYSAT ([2]; Rate 0.0320 kg/ha) | herbicidal effect rating, SAGPY (Sagittaria pygmaea, L. [5]; [19])
1.0: herbicidal effect rating, SAGPY (Sagittaria pygmaea, L. [5]; [17])
3.0: herbicidal effect rating, ORYSAT (rice tolerance) ([1]; Rate 0.2500 kg/ha) | herbicidal effect rating, SAGPY (Sagittaria pygmaea, L. [5]; [20]) | herbicidal effect rating, SAGPY (Sagittaria pygmaea, L. [8]; Rate 0.2500 kg/ha)
9.0: herbicidal effect rating ORYSAT ([2]; Rate 0.2500 kg/ha) | herbicidal effect rating, CYPSE ([3]; Rate 0.2500 kg/ha) | herbicidal effect rating, MOOVA [4, 17] | herbicidal effect rating, MOOVA [4, 18] | herbicidal effect rating, MOOVA [4, 19] | herbicidal effect rating, MOOVA [4, 20] | herbicidal effect rating, CYPIR (Cyperus iria [6]; [20]) | herbicidal effect rating, MOOVA ([7]; Rate 0.1250 kg/ha) | herbicidal effect rating, MOOVA ([7]; Rate 0.2500 kg/ha) | herbicidal effect rating, ECHORC [9, 17] | herbicidal effect rating, ECHORC [9, 18] | herbicidal effect rating, ECHORC [9, 19] | herbicidal effect rating, ECHORC [9, 20] | herbicidal effect rating, ECHORC ([12]; Rate 0.1250 kg/ha) | herbicidal effect rating, ECHORC ([12]; Rate 0.2500 kg/ha)
0.0: herbicidal effect rating, ORYSAT (rice tolerance) ([1]; Rate 0.0320 kg/ha) | herbicidal effect rating, ORYSAT (rice tolerance) ([1]; Rate 0.0620 kg/ha) | herbicidal effect rating, CYPSE ([3]; Rate 0.0320 kg/ha) | herbicidal effect rating, CYPSE ([3]; Rate 0.0620 kg/ha) | herbicidal effect rating, CYPSE ([3]; Rate 0.1250 kg/ha) | herbicidal effect rating, SAGPY (Sagittaria pygmaea, L. [5]; [18]) | herbicidal effect rating, MOOVA ([7]; Rate 0.0320 kg/ha) | herbicidal effect rating, MOOVA ([7]; Rate 0.0620 kg/ha) | herbicidal effect rating, SAGPY (Sagittaria pygmaea, L. [8]; Rate 0.0320 kg/ha) | herbicidal effect rating, SAGPY (Sagittaria pygmaea, L. [8]; Rate 0.0620 kg/ha) | herbicidal effect rating, SAGPY (Sagittaria pygmaea, L. [8]; Rate 0.1250 kg/ha) | herbicidal effect rating, CYPSE [11, 17] | herbicidal effect rating, CYPSE [11, 18] | herbicidal effect rating, CYPSE [11, 19] | herbicidal effect rating, CYPSE [11, 20] | herbicidal effect rating, ECHORC ([12]; Rate 0.0320 kg/ha)
5.0: herbicidal effect rating, CYPIR (Cyperus iria [6]; [18]) | herbicidal effect rating, CYPIR (Cyperus iria [6]; [19])
2.0: herbicidal effect rating, ORYSAT (rice tolerance) ([1]; Rate 0.1250 kg/ha)
6.0: herbicidal effect rating, CYPIR (Cyperus iria [10]; Rate 0.0320 kg/ha) | herbicidal effect rating, CYPIR (Cyperus iria [10]; Rate 0.0620 kg/ha) | herbicidal effect rating, CYPIR (Cyperus iria [10]; Rate 0.1250 kg/ha) | herbicidal effect rating, CYPIR (Cyperus iria [10]; Rate 0.2500 kg/ha)
3.5: herbicidal effect rating ORYSAT ([2]; Rate 0.0620 kg/ha)
4.5: herbicidal effect rating, CYPIR (Cyperus iria [6]; [17])
7.0: herbicidal effect rating ORYSAT ([2]; Rate 0.1250 kg/ha) | herbicidal effect rating, ECHORC ([12]; Rate 0.0620 kg/ha)
